Consider seven molecules from BindingDB's records for doi:10.1016/j.bioorg.2015.05.008 (Universidade Do Porto, 2015).

SMILES strings stand for the structures. pKi: −log10 of the molar value.

Holding throughout (experiment): Radioligand Binding Assay
The target in one test is T1, Adenosine receptor A3 (Homo sapiens, UniProt P0DMS8).
T1 sequence (P0DMS8 whole entry): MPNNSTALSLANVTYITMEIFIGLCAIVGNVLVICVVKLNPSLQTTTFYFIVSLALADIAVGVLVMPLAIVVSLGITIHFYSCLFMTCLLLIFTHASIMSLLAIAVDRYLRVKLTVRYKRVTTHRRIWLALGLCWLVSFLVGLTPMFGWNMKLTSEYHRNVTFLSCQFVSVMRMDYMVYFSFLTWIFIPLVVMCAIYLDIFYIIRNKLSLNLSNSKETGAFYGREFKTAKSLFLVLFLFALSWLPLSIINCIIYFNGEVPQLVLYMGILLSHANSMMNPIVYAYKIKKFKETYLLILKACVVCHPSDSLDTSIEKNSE
On the procedure: (§1) The radioligands used were 1 nM (2R,3R,4S,5R)-2-(2-chloro-6-cyclopentylamino-purin-9-yl)-5-hydroxymethyl-tetrahydro-3,4-diol ([3H]CCPA) for hA1, 10 nM (1-(6-amino-9H-purin-9-yl)-1-deoxy-N-ethyl-β-D-ribofuronamide) ([3H]NECA) for hA2a, and 1 nM 2-(1-hexynyl)-N6-methyladenosine [3H] ([3H]HEMADO) for hA3 receptors.

For a further test, the target named is Adenosine receptor A2a (Homo sapiens, UniProt P29274). Here is the method: as §1
Sequence of Adenosine receptor A2a (P29274 whole entry): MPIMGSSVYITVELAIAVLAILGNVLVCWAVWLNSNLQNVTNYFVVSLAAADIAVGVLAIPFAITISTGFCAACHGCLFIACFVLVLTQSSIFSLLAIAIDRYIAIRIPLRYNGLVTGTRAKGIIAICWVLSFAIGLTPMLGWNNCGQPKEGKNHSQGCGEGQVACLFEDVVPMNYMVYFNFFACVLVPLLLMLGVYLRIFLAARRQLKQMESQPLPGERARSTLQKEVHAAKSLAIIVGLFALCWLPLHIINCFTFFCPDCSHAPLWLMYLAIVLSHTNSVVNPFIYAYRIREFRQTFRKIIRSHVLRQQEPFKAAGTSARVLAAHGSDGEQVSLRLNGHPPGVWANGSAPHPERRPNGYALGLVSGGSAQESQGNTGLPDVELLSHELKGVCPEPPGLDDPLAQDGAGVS
For a further test, the target named is T2, Adenosine receptor A1 (Homo sapiens, UniProt P30542).
T2 sequence (P30542 whole entry): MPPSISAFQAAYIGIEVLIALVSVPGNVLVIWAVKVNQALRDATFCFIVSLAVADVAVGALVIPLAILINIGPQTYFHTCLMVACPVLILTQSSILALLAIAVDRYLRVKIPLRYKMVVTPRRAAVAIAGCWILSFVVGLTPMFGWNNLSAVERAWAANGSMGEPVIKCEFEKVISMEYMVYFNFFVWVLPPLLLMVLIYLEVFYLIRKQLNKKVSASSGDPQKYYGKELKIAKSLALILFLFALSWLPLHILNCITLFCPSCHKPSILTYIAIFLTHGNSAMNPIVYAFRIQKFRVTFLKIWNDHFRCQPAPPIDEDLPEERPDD
Here is the method: as §1

For `C=CC(=O)Nc1c(O)c2ccccc2oc1=O` [N-(4-Hydroxycoumarin-3-yl)acrylamide (3)], the pKi at Adenosine receptor A3, on Adenosine receptor A2a and at Adenosine receptor A1 was less than 4.00 each time.

`O=C(Nc1cc2ccccc2oc1=O)c1cccnc1` [N-(coumarin-3-yl)nicotinamide (6)]: the negative-log Ki (pKi) on Adenosine receptor A3, on Adenosine receptor A2a and on Adenosine receptor A1 was less than 4.00 in each case.

With `O=C(Nc1cc2ccccc2oc1=O)c1ccco1` [N-(Coumarin-3-yl)furan-2-carboxamide (8)], the figures for the negative-log Ki (pKi) at Adenosine receptor A3, at Adenosine receptor A2a and at Adenosine receptor A1 were 5.01, less than 4.00 and 5.29, respectively.

Consider `O=C(Nc1cc2ccccc2oc1=O)c1cccs1` [N-(coumarin-3-yl)thiophene-2-carboxamide (7)], for which the pKi at Adenosine receptor A3 is less than 4.22; at Adenosine receptor A2a, less than 4.00; at Adenosine receptor A1, 4.79.

As for `C=CC(=O)Nc1cc2ccccc2oc1=O` [N-(Coumarin-3-yl)acrylamide (2)], the pKi was less than 4.00 at Adenosine receptor A3, 4.91 at Adenosine receptor A2a and 5.05 on Adenosine receptor A1.

Take `O=C(Nc1cc2ccccc2oc1=O)c1ccccc1` [N-(2-oxidanylidenechromen-3-yl)benzamide]: the results for the pKi at Adenosine receptor A3, at Adenosine receptor A2a and at Adenosine receptor A1 were 5.49, less than 4.00 and less than 4.00, respectively.

`O=C(Nc1c(O)c2ccccc2oc1=O)c1ccccc1` [N-(4-hydroxycoumarin-3-yl)benzamide (5)]: the pKi on Adenosine receptor A3, at Adenosine receptor A2a and on Adenosine receptor A1 was less than 4.00 each time.
